Experimental data taken from article PMC12562379, “Facile Synthesis of N-vinylindoles via Knoevenagel Condensation: Molecular Features and Biological Activities” (International Journal of Molecular Sciences, 2025).
Converted amounts (≈) assume the structure as drawn. Like-named read-outs stand apart in the source and are kept apart here.

Tests used:
[1] = system: SKOV-3 cells; test: Cell cycle assay (Muse Cell Analyzer); assay type: cell-based, human; conditions: SKOV-3, 48 h
Description: The SKOV-3 cells (5 × 10^5 cells/well) were seeded and incubated with compound 2i at concentrations of 2, 5, 10, 15, 30, and 60 µg/mL for 48 h. After treatment, Muse Cell Cycle Assay Kit and Muse Cell Analyzer (Merck Millipore, Burlington, MA, USA) were used to analyze the stained cells, according to the manufacturer’s instruction. The results are shown as percentage of the cells in each phase of cell cycle: subG0, G0/G1, S, and G2/M. The experiment was repeated in two independent repeats (in three repetitions).

[2] = system: E. coli ATCC 8739; test: Microbroth dilution assay; assay type: cell-based; conditions: Escherichia coli, ATCC8739, E. coli ATCC 8739
Description: (§1) The minimum inhibitory concentration (MIC) and minimum bactericidal/fungicidal concentration (MBC/MFC) of the tested compounds were determined by the microbroth dilution technique using 96-well plates based on the methodology described in the EUCAST (European Committee on Antimicrobial Susceptibility Testing) standards. Reference and clinical strains of Gram-positive (Staphylococcus aureus ATCC 6538, Staphylococuccus aureus MRSA 6347) and Gram-negative (Escherichia coli ATCC 8739) bacteria, and yeast (Candida albicans ATCC 10231, Candida glabrata ATCC 2001) were used for the assay. The studies were carried out in the Mueller–Hinton (MH) broth for bacteria and RPMI 1640 broth + MOPS (Sigma-Aldrich, Poland) buffer in the case of yeast. The dry test samples were dissolved in DMSO (dimethyl sulfoxide), resulting in a final concentration of 15 mg/mL, and then diluted in a geometric progression. Ampicillin (Sigma-Aldrich, Poland) acted as a control sample (512 to 4 µg/mL) for bacteria and ketoconazole (128 to 1 µg/mL) (Sigma-Aldrich, Poland) acted as a control sample for yeast. The cultures of microorganisms were prepared by transferring cells from the stock cultures to tubes with the appropriate broth and incubated with agitation in an aerobic atmosphere for 18 ± 2 h at 35 ± 1 °C; next, they were diluted to achieve an optical density corresponding to 5 × 105 (bacteria) or 2 × 105 (yeast) colony-forming units per mL (cfu/mL). An appropriate media (96 µL), along with the tested compounds with a final concentration range of 300–3.1 µg/mL (4 µL) and next microbial suspension (100 µL) were added to each well. Plates with samples were incubated in adequate conditions described above and microbial growth was assessed. […] (>90%; ketoconazole) but 50% (for other compounds) inhibits visible growth of yeasts. Next, as a control of microbial viability, 100 µL of the samples from each well without growth was inoculated on the MH or RPMI agar plates and incubated for 18 ± 2 h at 35 ± 1 °C and finally, the CFU was counted. The MBC/MFC was determined as the minimum concentration of compounds required to kill 99.9% the organisms.

[3] = system: C. albicans ATCC 10231; test: Microbroth dilution assay; assay type: cell-based, Candida albicans
Description: as §1

MIC ([2]; read-out: MIC): > 240 µg/mL
MIC ([3]; C. albicans ATCC 10231): 120 µg/mL (≈ 356 µM)
MIC ([3]; Candida albicans, ATCC10231, C. albicans ATCC 10231, read-out: MIC): 60 µg/mL (≈ 178 µM)
Structure (SMILES): C(=C(\C1=NCCN1)n1ccc2ccccc21)/c1ccc2ccccc2c1 [Compound 2i, (Z)-1-[1-(4,5-dihydro-1H-imidazol-2-yl)-2-(naphthalen-2-yl)vinyl]-1H-indole]
cells in subG0 phase ([1]; 2 µg/mL): 28.10 ± 4.49%
cells in subG0 phase ([1]; 5 µg/mL): 49.00 ± 0.85%
cells in subG0 phase ([1]; 10 µg/mL): 82.73 ± 1.33%
cells in subG0 phase ([1]; 15 µg/mL): 91.67 ± 0.57%
cells in subG0 phase ([1]; 30 µg/mL): 95.30 ± 1.67%
cells in subG0 phase ([1]; 60 µg/mL): 99.83 ± 0.15%
cell cycle arrest ([1]; 2–60 µg/mL, all concentrations): strongly induced cell cycle arrest in subG0 phase
MBC [2]: > 240 µg/mL
MFC ([3]; C. albicans ATCC 10231): 120 µg/mL (≈ 356 µM)
MFC ([3]; Candida albicans, ATCC10231, C. albicans ATCC 10231, read-out: MFC): 60 µg/mL (≈ 178 µM)
